Source: patent US5872138A, “Thrombin inhibitors” (Merck & Co., Inc., priority 1997, dated 1999)
Structures can show the parent of a compound that is named as a salt.

Biological target: T1, human a-thrombin (Homo sapiens, UniProt P00734)
T1 construct: human a-thrombin
Experiment: In vitro assay for determining proteinase inhibition (thrombin Ki)
Format: biochemical
Conditions: Table 2; 25° C., pH 7.4; read-out: Ki (thr)
Description: In vitro assay for determining proteinase inhibition Assays of human a-thrombin and human trypsin were performed at 25° C. in 0.05M TRIS buffer pH 7.4, 0.15M NaCl, 0.1% PEG. Trypsin assays also contained 1 mM CaCl2. In assays wherein rates of hydrolysis of a p-nitroanilide (pna) substrate were determined, a Thermomax 96-well plate reader was used to measure (at 405 nm) the time dependent appearance of p-nitroaniline. […] Activity assays were performed by diluting a stock solution of substrate at least tenfold to a final concentration 0.5 Km into a solution containing enzyme or enzyme equilibrated with inhibitor. Times required to achieve equilibration between enzyme and inhibitor were determined in control experiments. Initial velocities of product formation in the absence (Vo) or presence of inhibitor (Vi) were measured. Assuming competitive inhibition, and that unity is negligible compared Km /[S], […] (where [S], [I], and e respectively represent the total concentrations, of substrate, inhibitor and enzyme), the equilibrium constant (Ki) for dissociation of the inhibitor from the enzyme can be obtained from the dependence of Vo /Vi on [I] shown in equation 1.

| Ki | Molecule |
| --- | --- |
| > 1 µM | c1ccc(CSc2ccc(CNc3ccncc3)cc2)cc1 |
| > 1 µM | c1cc(NCc2ccc(NCC3CCCCC3)cc2)ccn1 |
| > 1 µM | c1ccc(CNc2ccc(CNc3ccncc3)cc2)cc1 |
| > 1 µM | c1ccc(C(Oc2ccc(CNc3ccncc3)cc2)C2CCCCC2)cc1 (stereo not drawn) |
| > 1 µM | c1cc(NCc2ccc(OCCCCC3CCCCC3)cc2)ccn1 |
| > 1 µM | c1cc(NCc2ccc(OCCC3CCCCC3)cc2)ccn1 [4-[4-(2-cyclohexylethoxy)benzylamino]pyridine] |
| > 1 µM | c1ccc(COc2ccc(CNc3ccncc3)cc2)cc1 [N-4-(4-benzyloxybenzyl)aminopyridine] |

More lines, now with the values behind:

| Molecule | Ki |
| --- | --- |
| c1cc(NCc2ccc(OC(C3CCCCC3)C3CC3)cc2)ccn1 (stereo not drawn) | 0.1 to 1 µM |
| c1cc(NCc2ccc(OCC(C3CCCCC3)C3CCCCC3)cc2)ccn1 | > 1 µM |
| COC(=O)C(Oc1ccc(CNc2ccncc2)cc1)c1ccccc1 (stereo not drawn) | > 1 µM |
| NC(=O)C(Oc1ccc(CNc2ccncc2)cc1)c1ccccc1 (stereo not drawn) | > 1 µM |
| CC(C)C(Oc1ccc(CNc2ccncc2)cc1)c1ccc2c(c1)OCO2 (stereo not drawn) | > 1 µM |
| CCC(Oc1ccc(CNc2ccncc2)cc1)c1ccccc1 (stereo not drawn) | > 1 µM |
| CC(Oc1ccc(CNc2ccncc2)cc1)c1ccccc1 (stereo not drawn) | > 1 µM |
| c1ccc(CC(Cc2ccccc2)Oc2ccc(CNc3ccncc3)cc2)cc1 [4-[4-(1,3-diphenyl-2-propoxy)benzylamino]pyridine] | > 1 µM |
| c1ccc(C(COc2ccc(CNc3ccncc3)cc2)c2ccccc2)cc1 [4-[4-(2,2-diphenylethoxy)benzylamino]pyridine] | > 1 µM |
| CC(C)C(Oc1ccc(CNc2ccncc2)cc1)c1ccccc1 (stereo not drawn) [4-[4-(2-methyl-1-phenylpropoxy)benzylamino]pyridine] | > 1 µM |
| c1cc(NCc2ccc(OCc3ccc4c(c3)OCO4)cc2)ccn1 [4-[4-(3,4-methylenedioxybenzyloxy)benzylamino]pyridine] | > 1 µM |
| c1cc(NCc2ccc(OC(C3CCCCC3)C3CCCCC3)cc2)ccn1 [4-[4-(dicyclohexylmethoxy)-benzylamino]pyridine] | > 1 µM |
| c1ccc(C(Oc2ccc(CNc3ccncc3)cc2)c2ccccc2)cc1 [N-4-(1,1-diphenylmethoxy)benzylaminopyridine] | > 1 µM |
| c1cc(NCc2ccc(OCC3CCCCC3)cc2)ccn1 [N-4-(cyclohexylmethoxy)benzylaminopyridine] | > 1 µM |

Same assay, conditions: Table 3; 25° C., pH 7.4; read-out: Ki(th)

| Ki | Molecule |
| --- | --- |
| 3.2 µM | c1cc(NCc2ccc(OCC3CCCCC3)c(C3CC3)c2)ccn1 |
| 1.3 µM | CCCc1cc(CNc2ccncc2)ccc1OC(Cc1ccccc1)C1CC1 (stereo not drawn) |
| 0.26 µM | C=Cc1cc(CNc2ccncc2)ccc1OCC1CCCCC1 |
| 6.4 µM | c1ccc(-c2cc(OCC3CCCCC3)ccc2CNc2ccncc2)cc1 |
| 0.22 µM | CCCc1cc(CNc2ccncc2)ccc1OCC12CC3CC(CC(C3)C1)C2 |
| 1.6 µM | Oc1cc(OCC2CCCCC2)ccc1CNc1ccncc1 |
| 0.32 µM | CCCc1cc(CNc2ccncc2)ccc1OC(c1ccccc1)c1ccccc1 |
| 0.64 µM | CCc1cc(CNc2ccncc2)ccc1OCC1CCCCC1 [4-{[3-ethyl-4-(cyclohexylmethyloxy)phenyl]methylamino}pyridine] |
| 3.2 µM | CC(C)CCc1cc(CNc2ccncc2)ccc1OCC1CCCCC1 [drawing 160] |

The remaining lines, values behind:

| Molecule | Ki |
| --- | --- |
| OCCc1cc(CNc2ccncc2)ccc1OCC1CCCCC1 | 4.4 µM |
| CCCc1cc(CNc2ccncc2)ccc1OC(c1ccccc1)C1CC1 (stereo not drawn) | 0.8 µM |
| CC(C)Cc1cc(CNc2ccncc2)ccc1OCC1CCCCC1 | 1.5 µM |
| CCCc1cc(CNc2ccncc2)cc(CO)c1OCC1CCCCC1 | 3.8 µM |
| CCCc1cc(CNc2ccncc2)ccc1OCC1CCCCCC1 | 0.74 µM |
| COc1cc(OCC2CCCCC2)ccc1CNc1ccncc1 | 3.2 µM |
| CCCc1cc(CNc2ccncc2)ccc1OC(Cc1ccccc1)C(C)C (stereo not drawn) | 0.5 µM |
| CCCc1cc(CNc2ccncc2)c(Cc2ccccc2)cc1OCC1CCCCC1 | > 0.9 µM |
| CCCc1cc(CNc2ccncc2)ccc1OCc1ccc(OC)cc1 | 1.8 µM |
| CCCc1cc(CNc2ccncc2)ccc1OCc1ccccc1 | 1.8 µM |
| c1ccc(Cc2cc(OCC3CCCCC3)ccc2CNc2ccncc2)cc1 [4'-(4-cyclohexylmethyloxy-2-benzylphenylmethyl)-aminopyridine] | 1.8 µM |
| c1ccc(COc2cc(OCC3CCCCC3)ccc2CNc2ccncc2)cc1 [4-(4-cyclohexylmethyloxy-2-benzyloxybenzyl)aminopyridine] | 1.8 µM |
| Nc1cc(CNc2ccncc2)ccc1OCC1CCCCC1 [4-{[3-amino-4-(cyclohexylmethyloxy)phenyl]methylamino}pyridine dihydrochloride] | 2.9 µM |
| CCCc1cc(CNc2ccncc2)ccc1OCC1CCCCC1 [4-{[3-propyl-4-(cyclohexylmethyloxy)phenyl]methylamino}pyridine] | 0.5 µM |

Same assay, conditions: Table 4; 25° C., pH 7.4; read-out: Ki (thr)

| Ki | Molecule |
| --- | --- |
| > 10 µM | c1ccc(-c2cc(CNc3ccncc3)ccc2OCC2CCCCC2)cc1 |
| > 10 µM | OCc1cc(CNc2ccncc2)ccc1OCC1CCCCC1 |
| 1 to 10 µM | CNCc1cc(CNc2ccncc2)ccc1OCC1CCCCC1 |
| > 10 µM | CNC(=O)c1cc(CNc2ccncc2)ccc1OCC1CCCCC1 |
| 1 to 10 µM | CCCc1cc(CNc2ccncc2)ccc1OCc1cccc2ccccc12 |
| 1 to 10 µM | CCCc1cc(CNc2ccncc2)ccc1OCCC(C)C [i-butyl] |

The remaining lines, values behind:

| Molecule | Ki |
| --- | --- |
| NCc1cc(CNc2ccncc2)ccc1OCC1CCCCC1 | > 10 µM |
| CC(C)(C)OCCc1cc(CNc2ccncc2)ccc1OCC1CCCCC1 | > 10 µM |
| CCCc1cc(CNc2ccncc2)cc(CN2CCCCC2)c1OCC1CCCCC1 | 1 to 10 µM |
| CCCc1cc(CN(CC)c2ccncc2)ccc1OCC1CCCCC1 | > 10 µM |
| CCCc1cc(CNc2ccncc2C)ccc1OCC1CCCCC1 | 1 to 10 µM |
| CCCc1cc(CNc2ccncc2)ccc1OCC1CC2C=CC1C2 (stereo not drawn) | 0.1 to 1 µM |
| CC(C)CCc1cc(CNc2ccncc2)ccc1OCC1CCCCC1 [drawing 174] | 1 to 10 µM |

Same assay, conditions: Table 5; 25° C., pH 7.4; read-out: Ki(thr)

| Ki | Molecule |
| --- | --- |
| 1 to 10 µM | N=C(N)N1CCN(S(=O)(=O)c2ccc(OCc3ccccc3)cc2)CC1 [N-((4-benzyloxy)phenylsulfonyl)-N'-aminomethyliminopiperazine] |
| 0.1 to 1 µM | CCc1cc(S(=O)(=O)N2CCN(C(=N)N)CC2)ccc1OCC1CCCCC1 [N-((4-cyclohexylmethyloxy)-3-ethyl-phenylsulfonyl)-N'-aminomethyliminopiperazine] |

Same assay, conditions: Table 6; 25° C., pH 7.4; read-out: Ki(thr)

| Ki | Molecule |
| --- | --- |
| 0.02 µM | Cc1cc(Cc2ccc(C(=N)N)cc2)ccc1OC(C(C)C)C1CCCCC1 (stereo not drawn) |
| 0.17 µM | N=C(N)c1ccc(Cc2ccc(OCC3CCCCC3)cc2)cc1 [4-{[4-(Cyclohexylmethyloxy)phenyl]methyl}-benzamidine hydrochloride] |
| 0.39 µM | N=C(N)c1ccc(Cc2ccc(OCc3ccccc3)cc2)cc1 [4-{[4-(Phenylmethyloxy)phenyl]methyl}benzamidine hydrochloride] |

Continued, molecule first:

| Molecule | Ki |
| --- | --- |
| CCCc1cc(Cc2ccc(C(=N)N)cc2)ccc1OCC1CCCCC1 | 0.3 µM |
| CCCc1cc(Cc2ccc(C(=N)N)cc2)ccc1OC(C(C)C)C1CCCCC1 (stereo not drawn) | 0.28 µM |
| Cc1cc(Cc2ccc(C(=N)N)cc2)ccc1OCC1CCCCC1 | 0.102 µM |
| CCc1cc(Cc2ccc(C(=N)N)cc2)ccc1OCC1CCCCC1 | 0.077 µM |
| CCc1cc(Cc2ccc(C(=N)N)cc2)ccc1OC(C(C)C)C1CCCCC1 (stereo not drawn) | 0.02 µM |

Same assay, conditions: Table 7; 25° C., pH 7.4; read-out: Ki(thr)

| Ki | Molecule |
| --- | --- |
| 1 to 10 µM | c1cc(NCc2ccc(CCC3CCCCC3)cc2)ccn1 |
| 1 to 10 µM | c1ccc(OCc2ccc(CNc3ccncc3)cc2)cc1 |

Same assay, conditions: Table I; 25° C., pH 7.4; read-out: Ki (thr)

| Ki | Molecule |
| --- | --- |
| > 1 µM | Nc1cc[n+](Cc2ccc(-c3ccccc3)cc2)cc1 |
| > 1 µM | Nc1cc[n+](Cc2ccc(OCc3ccccc3)cn2)cc1 |
| 0.1 to 1 µM | Nc1cc[n+](Cc2ccc(OC(C3CCCCC3)C3CCCCC3)cc2)cc1 [4-amino-1-[4-(dicyclohexylmethoxy)benzyl]pyridinium bromide] |

The next lines start with the molecule.

| Molecule | Ki |
| --- | --- |
| Nc1cc[n+](Cc2ccc(OCc3ccccc3)cc2)cc1 | 0.1 to 1 µM |
| Nc1cc[n+](Cc2ccc(OCc3ccccc3)nc2)cc1 | > 1 µM |
| COc1cc(C[n+]2ccc(N)cc2)ccc1OCc1ccccc1 | > 1 µM |
| Nc1cc[n+](Cc2ccc(OCc3ccccc3)c(OCc3ccccc3)c2)cc1 | > 1 µM |
| 4-amino-1-(4-(1-phenyl-1-carbomethoxy)methoxybenzyl)pyridinium bromide | 0.1 to 1 µM |
| Nc1cc[n+](Cc2ccc(OC(c3ccccc3)c3ccccc3)cc2)cc1 [4-amino-1-(4-(1,1-diphenylmethoxy)benzylpyridinium bromide] | < 0.1 µM |
| Nc1cc[n+](Cc2ccc(OCC(C3CCCCC3)C3CCCCC3)cc2)cc1 [4-amino-1-(4-(2,2-dicyclohexyl-1-ethoxy)benzyl)pyridinium bromide] | 0.1 to 1 µM |
| Nc1cc[n+](Cc2ccc(OC(CCc3ccccc3)c3ccccc3)cc2)cc1 (stereo not drawn) [4-amino-1-[4-(1,3-diphenyl-1-propoxy)benzyl]pyridinium bromide] | 0.1 to 1 µM |
| Nc1cc[n+](Cc2ccc(OCC(c3ccccc3)c3ccccc3)cc2)cc1 [4-amino-1-[4-(2,2-diphenylethoxy)benzyl]pyridinium bromide] | 0.1 to 1 µM |
